Test results: patent publication US6573296B2, “Therapeutic quassinoid preparations with antineoplastic, antiviral, and herbistatic activity” (priority 1997, dated 2003)
Like-named read-outs stand apart in the source and are kept apart here.

Assays:
L1210 = test: soft agar disk diffusion zone of inhibition assay; format: cell-based, mice
[1] = tested on: leukemia and solid tumor cells; test: in vitro differential cytotoxicity, solid tumor versus leukemia; format: cell-based; conditions: for solid tumor selectivity in vitro: solid tumor versus leukemia zones
C38 = test: soft agar disk diffusion zone of inhibition assay; format: cell-based, mice
[2] = tested on: colon adenocarcinoma #38 [C38]; test: in vivo chemotherapy of SC transplanted tumor; set-up: species or system mice; conditions: for Cures / MTD Total Dose: C38; for Cures: IV at MTD, cured/total mice; for MTD Total Dose: IV, days: Glaucarubinone 3,5-10, Holacanthone 3-12, Glaucarubolone 3-6, Chaparrinone 3-9; for in vivo activity against C38, in words: mouse
Excerpt: (§1) Mice. Inbreds mice used were C57B1/6, C3H/He, Balb/c, and DBA/2; hybrids were: B6D2F1 (C57B1/6 females×DBA/2 males), and CD2F1 (Balb/c females×DBA/2 males). All mice were obtained from the Frederick Cancer Research Facility, Frederick, Md.
(§2) Tumors were maintained in the mouse strain of origin and were transplanted into either an appropriate F1 hybrid or the strain of origin for therapy trials. All mice were over 17 g at the start of therapy; the range of individual body weights in each experiment was within 2 g. The mice were supplied food and water ad libitum.
(§3) Antitumor Agents. The compound easily dissolved in the diluent which consisted of 3% [V/V (100%-Pure)] Ethanol, 1% (V/V) polyoxyethylanesorbitan monopalmitate (P.O.E.40) and 96% sterile distilled water. The primary route of administration was intravenous (IV).
(§4) […] Chemotherapy. The methods of protocol design, tumor transplantation, drug treatment, endpoint determination, definition of terms, toxicity evaluation, data analysis, quantification of tumor cell kill, and the biologic significance of the drug treatment results with transplantable tumors have been presented. The following is a brief summary of those methods as they apply to the work described.
(§5) The animals necessary to begin an experiment were pooled, implanted bilaterally SC on day 0 with 30 to 60 mg tumor fragments using a 12 gauge trocar, and again pooled before randomization to the various treatment and control group. Chemotherapy was either started within 3 days after tumor implantation while the number of cells per mouse was relatively small (10^7 to 10^8 cells), or allowed to grow to palpation (about 3×10^8 cells) in a more advanced stage trial.
(§6) Tumors were measured with a caliper either once or twice weekly (as needed) until either tumors exceeded 1500 mg or cure was. assured. Tumor weights were estimated from two-dimensional measurements:
(§7) Tumor Weight (mg)=(a×b^2)/2, where a and b are the tumor length and width (mm) respectively.
(§8) Tumor growth delay. (T-C value), where T is the median time (in days) required for the treatment group tumors to reach a predetermined size, and C is the median time (in days) for the control group tumors to reach the same size. Tumor-free survivors were excluded from these calculations (cures were tabulated separately).
(§9) Calculation of tumor cell kill. For SC growing tumors, the log10 cell kill was calculated from the following formula: [formula]
(§10) Where T-C is the tumor growth delay (in days) as described above and Td is the tumor volume doubling time (in days), the latter estimated from the best fit straight line from a log-linear growth plot of the control-group tumors in exponential growth (500 to 1500 mg range). The conversion of the T-C values of log10 cell kill is possible because the Td for tumors regrowing post-treatment approximated the Td values of the tumors in untreated control mice.
(§11) Determination of activity by tumor growth inhibition (T/C value). Measurements were carried out simultaneously in both the treatment and control groups. When the control group tumors reached approximately 750-1500 mg in size (median of group), the median tumor weight of each group was determined (including zeros).

[3] = tested on: mammary adenocarcinoma #16/C [Mamm 16/C]; test: in vivo chemotherapy of SC transplanted tumor; set-up: species or system mice; conditions: for MTD Total Dose: MAM 16/C, IV days: Glaucarubinone 1-11, Holacanthone 1-9/, Chaparrinone 1-6; for in vivo activity against Mam 16/C, in words: mouse
Excerpt: as §1, §2, §3, §4, §5, §6, §7, §8, §9, §10, §11

CX-1 = test: soft agar disk diffusion zone of inhibition assay; format: cell-based, human
Excerpt: (§12) The following human tumors were used: Human adenosquamous lung tumor H-125 (7) and colon tumors H8, HCT-116, and CX-1 were used for in vitro testing only. Each human cell line was maintained in culture until plating was done. HCT-116, H8, and CX-1 were maintained in McCoy's media and heat inactivated fetal bovine serum (11% FBS). It was passaged (1:5 dilution) twice week following enzymatic dissociation using a trypsin/PBS-EDTA mixture. H-125 was maintained in CMRL/Fischer media (1:1) with 11% FBS. It was mechanically dissociated and passaged (3:10 dilution) weekly. For the plating assay, all cells were mechanically dispersed and diluted in the CMRL/Fischer. media mixture.

M17/Adr = conditions: multidrug resistant, p-glycoprotein expressing mammary tumor versus leukemia
[4] = tested on: mammary adenocarcinoma 17/A/ADR [Mamm 17/Adr]; test: in vivo chemotherapy of SC transplanted tumor; set-up: species or system mice
Excerpt: as §1, §2, §3, §4, §5, §6, §7, §8, §9, §10, §11

H8 = test: soft agar disk diffusion zone of inhibition assay; format: cell-based, human
Excerpt: as §12

human rhinovirus-14 = test: cytopathic effect of rhinovirus in HeLa cells; format: cell-based; conditions: HeLa cells (Wisconsin strain), visually observed
Procedure: C. HeLa cells (Wisconsin strain, Berlin, Germany) were contacted with human rhinovirus-14. Infected cells (Wisconsin strain) were visually observed. […] HeLa cells were not killed by any compounds used. Cells of other HeLa lines (eg. ATCC CCL2) were killed. Glaucarubolone, simalikalactone D and chaparrinone were tested on cell killing and virus production by primary blood monocytes. All three drugs were tested at five concentrations (0, 10^−9, 10^−8, 10^−7, and 10^−6 M). Drugs were given at different times pre-infection, given at the time of infection, or were administered at different times post-infection.

Tomato plants = test: growth of plants in peat after treatment; format: in vivo
Procedure: Tomato plants about 3.5 cm high at the time of treatment were grown in peat in a flat of 1.5 inch diameter compartments and were treated with either aqueous simalikalactone (solution QD-1) or aqueous glaucarubolone (solution QD-2) containing 0.1% Triton X-100. The final volume/plant was 10 μ1 for the aqueous solution and 200 µl of the aqueous solution containing Triton X-100. […] With the aqueous treatment, plants also were inhibited but not as markedly as with detergent.

[5] = tested on: porcine pseudorabies virus; conditions: rabbit kidney cells, visually monitored
NADH oxidase = NADH oxidase activity of soybean hypocotyl plasma membrane vesicles; format: biochemical; conditions: Isolated PM vesicles; read-out: ED50, Inhibition of NADH oxidase
soybean hypocotyls = test: growth of sections cut from dark-grown soybean hypocotyls; conditions: Excised segments of etiolated soybean hypocotyls (18 h)
[6] = tested on: pancreatic ductal adenocarcinoma #03 [PO3]; test: in vivo chemotherapy of SC transplanted tumor; set-up: species or system mice; conditions: for % T/C / Cures / Log Cell Kill / MTD Total Dose: PO3
Excerpt: as §1, §2, §3, §4, §5, §6, §7, §8, §9, §10, §11

P388 = test: soft agar disk diffusion zone of inhibition assay; format: cell-based, mice; conditions: 0.25 ug/disk
C16 = test: in vivo chemotherapy of SC transplanted tumor; set-up: species or system mice
Excerpt: as §1, §2, §3, §4, §5, §6, §7, §8, §9, §10, §11

MX-1 = test: soft agar disk diffusion zone of inhibition assay; format: cell-based, human; conditions: dose line (5, 1 or 0.3 ug/disk) not clear
[7] = 5 ug/disk (figure before the colon)
[8] = IV days: Glaucarubinone 4-15, Peninsularinone 3-13
[9] = IV days 4,6,8,10,12,14 (Twice Daily)
[10] = C16, IV days 3,5,7,9,11,13 (Twice Daily)

## CC(=O)O[C@H]1C(=O)O[C@@H]2C[C@H]3C(C)=CC(=O)[C@@H](O)[C@]3(C)[C@H]3[C@@]4(O)OC[C@]32[C@@H]1[C@@H](C)[C@H]4O [Holacanthone]
L1210; 12 ug/disk
  zone of inhibition L1210: 12:310 ZONE UNITS
[1]
  solid tumor selectivity in vitro: demonstrated solid tumor selectivity
C38; 12 ug/disk
  zone of inhibition C38: 950 ZONE UNITS
[2]
  Cures: 0.5
  MTD Total Dose: 188 mg/kg
[3]
  MTD Total Dose: 80 mg/kg
CX-1; 12 ug/disk
  zone of inhibition CX-1: 900 ZONE UNITS
M17/Adr
  differential / selectivity for M17/Adr (Mam 17/Adr): demonstrated selectivity

## CC1=CC(=O)[C@@H](O)[C@]2(C)[C@H]3[C@@]4(O)OC[C@@]35[C@@H](C[C@@H]12)OC(=O)C[C@H]5[C@@H](C)[C@H]4O [Chaparrinone]
L1210; [7]
  zone of inhibition L1210: 5:200 ZONE UNITS
[1]
  solid tumor selectivity in vitro: demonstrated solid tumor selectivity
C38; 5 ug/disk
  zone of inhibition C38: 920 ZONE UNITS
[2]
  Cures: 3/5
  MTD Total Dose: 232 mg/kg
  in vivo activity against C38, in words: therapeutic activity
[3]
  MTD Total Dose: 90 mg/kg
  in vivo activity against Mam 16/C, in words: activity
[4]; MAM 17/AdR, IV days 1-10
  % T/C: 42%
  Cures: 0/5
  MTD Total Dose: 260 mg/kg
[4]; mouse, in vivo
  in vivo activity against Mam 17/Adr, in words: activity
H8; 5 ug/disk
  zone of inhibition H8: 270 ZONE UNITS
CX-1; 5 ug/disk
  zone of inhibition CX-1: 480 ZONE UNITS
M17/Adr
  differential / selectivity for M17/Adr (Mam 17/Adr): demonstrated selectivity

## Ailanthinone
L1210; 2 ug/disk
  zone of inhibition L1210: 2:290 ZONE UNITS
[1]
  solid tumor selectivity in vitro: no solid tumor selectivity
C38; 2 ug/disk
  zone of inhibition C38: 340 ZONE UNITS
CX-1; 2 ug/disk
  zone of inhibition CX-1: 300 ZONE UNITS

## CC[C@@H](C)C(=O)O[C@H]1C(=O)O[C@@H]2C[C@H]3C(C)=CC(=O)[C@@H](O)[C@]3(C)[C@H]3[C@@H](O)[C@H](O)[C@]4(C)OC[C@]32[C@@H]14 [simalikalactone D]
Human rhinovirus-14
  cytopathic effect of human rhinovirus-14: Cytopathic effect was delayed
Tomato plants; 1:1000 and 1:10,000 dilutions in detergent solution, 30 days after treatment
  effect on tomato plants, in words: still inhibited
Tomato plants; 100 Mm diluted 1:100 in 0.1% Triton X-100
  effect on tomato plants, in words: did not grow and eventually died
[5]
  cytopathic effect of porcine pseudorabies virus: Inhibitory effect was also observed
NADH oxidase
  EC50: 400 nM
Soybean hypocotyls; read-out: ED50, Inhibition of 2,4-D (1 μM)-induced growth
  EC50: 3500 nM
Soybean hypocotyls; read-out: ED50, Inhibition of control growth
  EC50: 2500 nM

## quassimarine
Human rhinovirus-14
  cytopathic effect of human rhinovirus-14: Cytopathic effect was delayed
[5]
  cytopathic effect of porcine pseudorabies virus: Inhibitory effect was also observed

## (−)-Peninsularinone
Human rhinovirus-14
  cytopathic effect of human rhinovirus-14: Cytopathic effect was delayed
L1210; 0.25 ug/disk
  zone of inhibition L1210: 0.25:310 ZONE UNITS
[5]
  cytopathic effect of porcine pseudorabies virus: Inhibitory effect was also observed
[6]; [8]
  % T/C: 3%
  Cures: 0/5
  Log Cell Kill: 2.0
  MTD Total Dose: 4.3 mg/kg
H8; 0.25 ug/disk
  zone of inhibition H8: 510 ZONE UNITS
P388
  zone of inhibition (P388), printed in C38 column: 700 (P388) ZONE UNITS

## Glaucarubinone
L1210; 0.3 ug/disk
  zone of inhibition L1210: 160 ZONE UNITS
L1210; 1 ug/disk
  zone of inhibition L1210: 300 ZONE UNITS
L1210; [7]
  zone of inhibition L1210: 600 ZONE UNITS
[1]; PO3 versus L1210, compared with 400 units for C38
  zone differential for PO3: similar, or greater differential
[1]
  solid tumor selectivity in vitro: solid tumor selective
C38; 0.3 ug/disk
  zone of inhibition C38: 450 ZONE UNITS
C38; 1 ug/disk
  zone differential between C38 and L1210: 400 units
  zone of inhibition C38: 700 ZONE UNITS
C38; 5 ug/disk
  zone of inhibition C38: 950 ZONE UNITS
[6]; [9]
  % T/C: 0%
  Cures: 0.6
  Log Cell Kill: 3.1
  MTD Total Dose: 16 mg/kg
[6]; [8]
  % T/C: 15%
  Cures: 1/6
  Log Cell Kill: 1.5
  MTD Total Dose: 16 mg/kg
[6]; mouse, in vivo
  in vivo activity against PO3, in words: curative activity
C16; [10]
  % T/C: 42%
  Cures: 0/5
  MTD Total Dose: 18 mg/kg
C16; mouse, in vivo
  in vivo activity against Col26, in words: Antitumor activity
[2]
  Cures: 1/5
  MTD Total Dose: 9.1 mg/kg
  in vivo activity against C38, in words: curative activity
[3]
  MTD Total Dose: 24 mg/kg
  in vivo activity against Mam 16/C, in words: Antitumor activity
CX-1; dose line (5, 1 or 0.3 ug/disk) not clear
  zone of inhibition CX-1: 400 ZONE UNITS
MX-1
  zone of inhibition (MX-1), printed in H8 column: 600 (MX-1) ZONE UNITS
M17/Adr
  differential / selectivity for M17/Adr (Mam 17/Adr): no differential
